{"source": "patent US20240057598A1", "about": "“USE OF 2-AMINO-3-METHYLHEXANOIC ACID AS PLANT IMMUNITY INDUCER” (NANJING AGRICULTURAL UNIVERSITY, priority 2020, published 2024)", "key": {"wheat [1]": {"system": "wheat", "assay": "Induced resistance of wheat to high temperature stress", "type": "in vivo", "conditions": "for Dry weight of overground part / Fresh weight of overground part / Heat injury index: 45° C. 9 h, 7 days recovery", "method": "[…] A blank control was additionally set, and 0.02% Tween 20 was added as a surfactant. 4 groups of repetitions were set for each concentration, and a normal temperature blank control was set at the same time. Ryegrass seeds were weighed according to 0.8 g per pot, sowed in a pot with a diameter of 8.5 cm, and planted in a greenhouse at a temperature of 25° C., a humidity of 60%-70%, and a light intensity of 200 μmolm^−2s^−1 (12 h light/12 h dark). On the 8th day of the seedling stage, the ryegrass was sprayed with the 2-amino-3-methylhexanoic acid solutions on the leaves twice in 24 h. 24 h after the second treatment, the plants were transferred to a light incubator at a temperature of 45° C. for conducting high temperature stress treatment for 12 h, and then the plants were taken out and transferred to a greenhouse at a temperature of 25° C. for 7 days of recovery. The injured conditions of the plants were observed and counted, and the heat injury grade was calculated. […] After the counting, the fresh weight of the aboveground part of the plant was weighed, and then the aboveground part was baked in an 85° C. oven for 48 h to determine the dry weight.\nWheat seeds were weighed according to 1.5 g per pot, and planted by a method and under conditions the same as those of ryegrass. When the wheat grew for two weeks in the seedling stage, the experiment was conducted. High temperature stress was conducted for 9 h, and the treatment method and subsequent statistical indexes were the same as those of the ryegrass mentioned above."}, "tomato": {"system": "tomato", "assay": "Induced resistance of tomato to high temperature stress", "type": "in vivo", "method": "2-amino-3-methylhexanoic acid was dissolved in distilled water and diluted with distilled water into solutions of 1 nM, 10 nM, 100 nM and 1,000 nM by gradient. A blank control was additionally set, and 0.02% Tween 20 was added as a surfactant. 4 groups of repetitions were set for each concentration, and a normal temperature blank control was set at the same time. Ryegrass seeds were weighed according to 0.8 g per pot, sowed in a pot with a diameter of 8.5 cm, and planted in a greenhouse at a temperature of 25° C., a humidity of 60%-70%, and a light intensity of 200 μmolm^−2s^−1 (12 h light/12 h dark). On the 8th day of the seedling stage, the ryegrass was sprayed with the 2-amino-3-methylhexanoic acid solutions on the leaves twice in 24 h. 24 h after the second treatment, the plants were transferred to a light incubator at a temperature of 45° C. for conducting high temperature stress treatment for 12 h, and then the plants were taken out and transferred to a greenhouse at a temperature of 25° C. for 7 days of recovery. The injured conditions of the plants were observed and counted, and the heat injury grade was calculated. […] After the counting, the fresh weight of the aboveground part of the plant was weighed, and then the aboveground part was baked in an 85° C. oven for 48 h to determine the dry weight.\nTomato seeds were sowed in small pots, and three tomato seedlings with the same growth condition were transplanted into one pot after emergence. The planting method and conditions were the same as above. When the tomato grew for 18 days in the seedling stage, the experiment was conducted. High temperature stress was conducted at 42° C. for 9 h, and the treatment method and subsequent statistical indexes were the same as those of the above."}, "[2]": {"system": "tea \"Baiye 1\" cutting seedlings", "assay": "Effect on amino acid content of tea leaves at normal temperature", "type": "in vivo", "parameters": "Amino acid content of tea leaves: unit not given here", "conditions": "10 nM, room temperature", "method": "At normal temperature, the effect of 2-amino-3-methylhexanoic acid on tea quality was determined using “Baiye 1” cutting seedlings as the tea trees tested. Tea seedlings with relatively consistent growth were transplanted into a plastic pot with a diameter of 18 cm and placed in a greenhouse at a temperature of 25° C. and a humidity of 60%-70% for adaptive growth for about a week. Two concentrations of 0 and 10 nM were set in the experiment, and 0.02% Tween 20 was added as a surfactant. 1 week after transplanting, the stems and leaves of the tea seedlings were sprayed once every 24 h, twice in total. After spray, the tea leaves were placed in a greenhouse at 25° C., and samples were taken on the 1st, 3rd, 5th and 7th days to determine the total amino acid content of one leaf and one bud at the top of tea leaves."}, "wheat [3]": {"system": "wheat", "assay": "Induced resistance of wheat to drought stress (25% PEG-6000)", "type": "in vivo", "conditions": "for Drought injury index / Dry weight Overground part / Dry weight Underground part / Fresh weight Overground part / Fresh weight Underground part / Length of root: wheat, 25% PEG-6000 6 days, 7 days recovery", "method": "Wheat was cultured in water in a 6-mesh sieve used as a container according to 50 grains per sieve, and ½ Hoagland nutrient solution was changed every three days. When the wheat grew to the stage of two leaves and one bud, the leaf surface was sprayed with 2-amino-3-methylhexanoic acid solutions, the concentration of the 2-amino-3-methylhexanoic acid was 0, 100 and 1,000 nM, and 0.02% Tween 20 was added as a surfactant. After two days of continuous spraying, the water culture nutrient solution was replaced with ½ Hoagland nutrient solution containing 25% PEG-6000 on the 3rd day for stress treatment. After 6 days of drought stress, rehydration treatment was conducted. After 7 days of recovery growth in a normal nutrient solution, the drought index was observed and determined, and the root length and biomass were determined.\nThe performance characteristics of drought injury of leaves are similar to those of salt injury. The drought injury rate and the drought injury index were introduced by using the evaluation indexes of salt injury. The formula for calculating the drought injury index is as follows, and the grading standard of drought injury is shown in Table 11."}, "Escherichia coli K-12": {"system": "Escherichia coli K-12", "conditions": "cited from earlier work"}, "A. ureafaciens": {"system": "A. ureafaciens", "conditions": "cited from earlier work"}, "Aerobacter aerogenes": {"system": "Aerobacter aerogenes", "conditions": "cited from earlier work"}, "[4]": {"conditions": "10 nM, 42° C. 9 h, 7 days recovery"}, "[5]": {"conditions": "100 nM, 42° C. 9 h, 7 days recovery"}, "[6]": {"conditions": "1,000 nM, 42° C. 9 h, 7 days recovery"}, "[7]": {"conditions": "1,000 nM, wheat seedlings, drought stress"}}, "data": [{"smiles": "CCCC(C)C(N)C(=O)O", "note": "(centres unmarked) [2-amino-3-methylhexanoic acid]", "values": [{"measurement": "Dry weight of overground part", "setting": "wheat [1]; 10 nM", "value": "0.72 ± 0.04", "unit": "bc g"}, {"measurement": "Fresh weight of overground part", "setting": "wheat [1]; 10 nM", "value": "1.76 ± 0.13", "unit": "c g"}, {"measurement": "Heat injury index", "setting": "wheat [1]; 10 nM", "value": 85, "unit": "%"}, {"measurement": "Dry weight of overground part", "setting": "wheat [1]; 100 nM", "value": "0.75 ± 0.04", "unit": "c g"}, {"measurement": "Fresh weight of overground part", "setting": "wheat [1]; 100 nM", "value": "1.87 ± 0.12", "unit": "c g"}, {"measurement": "Heat injury index", "setting": "wheat [1]; 100 nM", "value": 75, "unit": "%"}, {"measurement": "Dry weight of overground part", "setting": "wheat [1]; 1,000 nM", "value": "0.78 ± 0.05", "unit": "bc g"}, {"measurement": "Fresh weight of overground part", "setting": "wheat [1]; 1,000 nM", "value": "2.11 ± 0.30", "unit": "c g"}, {"measurement": "Heat injury index", "setting": "wheat [1]; 1,000 nM", "value": 65, "unit": "%"}, {"measurement": "Decrease of heat injury index", "setting": "wheat [1]; 10,000 nM", "value": 40, "unit": "%"}, {"measurement": "Dry weight of aboveground part higher than untreated control group", "setting": "wheat [1]; 10,000 nM", "value": 31.94, "unit": "%"}, {"measurement": "Fresh weight of aboveground part higher than untreated control group", "setting": "wheat [1]; 10,000 nM", "value": 102.84, "unit": "%"}, {"measurement": "Dry weight of overground part", "setting": "wheat [1]; 10,000 nM", "value": "0.95 ± 0.04", "unit": "ab g"}, {"measurement": "Fresh weight of overground part", "setting": "wheat [1]; 10,000 nM", "value": "3.57 ± 0.50", "unit": "b g"}, {"measurement": "Heat injury index", "setting": "wheat [1]; 10,000 nM", "value": 40, "unit": "%"}, {"measurement": "Optimum concentration inducing resistance to high temperature stress", "setting": "tomato", "value": "1,000 nM"}, {"measurement": "Dry weight of overground part", "setting": "tomato; [4]", "value": "0.05 ± 0.01", "unit": "b g"}, {"measurement": "Heat injury index", "setting": "tomato; [4]", "value": 95}, {"measurement": "Dry weight of overground part", "setting": "tomato; [5]", "value": "0.06 ± 0.02", "unit": "g·h"}, {"measurement": "Fresh weight of overground part", "setting": "tomato; [5]", "value": "0.61 ± 0.16", "unit": "abc g"}, {"measurement": "Heat injury index", "setting": "tomato; [5]", "value": 90}, {"measurement": "Dry weight of overground part", "setting": "tomato; [6]", "value": "0.08 ± 0.003", "unit": "ab g"}, {"measurement": "Heat injury index", "setting": "tomato; [6]", "value": 60}, {"measurement": "Increase of amino acid content compared with control", "setting": "[2]; 3rd day", "value": 14, "unit": "%"}, {"measurement": "Increase of amino acid content compared with control", "setting": "[2]; 5th day", "value": 26, "unit": "%"}, {"measurement": "Amino acid content of tea leaves", "setting": "[2]; day 1", "value": 2.13}, {"measurement": "Amino acid content of tea leaves", "setting": "[2]; day 3", "value": 2.44}, {"measurement": "Amino acid content of tea leaves", "setting": "[2]; day 5", "value": 2.69}, {"measurement": "Amino acid content of tea leaves", "setting": "[2]; day 7", "value": 2.08}, {"measurement": "Drought injury index", "setting": "wheat [3]; 100 nM", "value": 50, "unit": "%"}, {"measurement": "Dry weight Overground part", "setting": "wheat [3]; 100 nM", "value": "0.79 ± 0.01", "unit": "a"}, {"measurement": "Dry weight Underground part", "setting": "wheat [3]; 100 nM", "value": "0.34 ± 0.02", "unit": "a"}, {"measurement": "Fresh weight Overground part", "setting": "wheat [3]; 100 nM", "value": "6.71 ± 0.69", "unit": "b"}, {"measurement": "Fresh weight Underground part", "setting": "wheat [3]; 100 nM", "value": "3.48 ± 0.40", "unit": "a"}, {"measurement": "Length of root", "setting": "wheat [3]; 100 nM", "value": "13.83 ± 0.26", "unit": "b"}, {"measurement": "Decrease of drought index", "setting": "wheat [3]; [7]", "value": 36, "unit": "%"}, {"measurement": "Increase of dry weight of aboveground part", "setting": "wheat [3]; [7]", "value": 10.00, "unit": "%"}, {"measurement": "Increase of dry weight of underground part", "setting": "wheat [3]; [7]", "value": 18.75, "unit": "%"}, {"measurement": "Increase of fresh weight of aboveground part", "setting": "wheat [3]; [7]", "value": 35.82, "unit": "%"}, {"measurement": "Increase of fresh weight of underground part", "setting": "wheat [3]; [7]", "value": 34.33, "unit": "%"}, {"measurement": "Increase of root length compared with control group", "setting": "wheat [3]; [7]", "value": 6, "unit": "%"}, {"measurement": "Drought injury index", "setting": "wheat [3]; 1,000 nM", "value": 30, "unit": "%"}, {"measurement": "Dry weight Overground part", "setting": "wheat [3]; 1,000 nM", "value": "0.88 ± 0.05", "unit": "a"}, {"measurement": "Dry weight Underground part", "setting": "wheat [3]; 1,000 nM", "value": "0.38 ± 0.02", "unit": "a"}, {"measurement": "Fresh weight Overground part", "setting": "wheat [3]; 1,000 nM", "value": "8.72 ± 0.59", "unit": "a"}, {"measurement": "Fresh weight Underground part", "setting": "wheat [3]; 1,000 nM", "value": "4.46 ± 0.01", "unit": "a"}, {"measurement": "Length of root", "setting": "wheat [3]; 1,000 nM", "value": "14.50 ± 0.27", "unit": "a"}, {"measurement": "Inhibitory effect", "setting": "Escherichia coli K-12", "value": "obvious inhibitory effect"}, {"measurement": "Inhibitory effect", "setting": "A. ureafaciens", "value": "slight inhibitory effect"}, {"measurement": "Inhibitory effect", "setting": "Aerobacter aerogenes", "value": "no inhibitory effect"}]}]}
